Test results reported in ChEMBL document CHEMBL3286168, “Synthesis of 2'-O,4'-C-alkylene-bridged ribonucleosides and their evaluation as inhibitors of HCV NS5B polymerase” (Bioorg Med Chem Lett, 2014).

Assays:
Hepatitis C virus = test: Antiviral activity against wild type Hepatitis C virus genotype 1b infected in human HuH7 cells after 72 hrs by luciferase reporter gene assay; type: functional, cell-based, Hepacivirus hominis; settings: Huh-7, 72 h
[1] = Cytotoxicity against human HuH7 cells up to 100 uM after 3 hrs by CellTiter-Blue cell viability assay; type: cell-based; settings: huh-7, 3 h
[2] = Inhibition of purified wild type Hepatitis C virus 1b NS5B polymerase; design: species or system Hepatitis C virus subtype 1b
[3] = molecular target: RNA-directed RNA polymerase (Hepacivirus hominis, UniProt O39930, S282T); test: Inhibition of purified Hepatitis C virus NS5B polymerase S282T mutant; design: species or system Hepatitis C virus subtype 1b
Chain of RNA-directed RNA polymerase (O39930 entry or part of it S282T): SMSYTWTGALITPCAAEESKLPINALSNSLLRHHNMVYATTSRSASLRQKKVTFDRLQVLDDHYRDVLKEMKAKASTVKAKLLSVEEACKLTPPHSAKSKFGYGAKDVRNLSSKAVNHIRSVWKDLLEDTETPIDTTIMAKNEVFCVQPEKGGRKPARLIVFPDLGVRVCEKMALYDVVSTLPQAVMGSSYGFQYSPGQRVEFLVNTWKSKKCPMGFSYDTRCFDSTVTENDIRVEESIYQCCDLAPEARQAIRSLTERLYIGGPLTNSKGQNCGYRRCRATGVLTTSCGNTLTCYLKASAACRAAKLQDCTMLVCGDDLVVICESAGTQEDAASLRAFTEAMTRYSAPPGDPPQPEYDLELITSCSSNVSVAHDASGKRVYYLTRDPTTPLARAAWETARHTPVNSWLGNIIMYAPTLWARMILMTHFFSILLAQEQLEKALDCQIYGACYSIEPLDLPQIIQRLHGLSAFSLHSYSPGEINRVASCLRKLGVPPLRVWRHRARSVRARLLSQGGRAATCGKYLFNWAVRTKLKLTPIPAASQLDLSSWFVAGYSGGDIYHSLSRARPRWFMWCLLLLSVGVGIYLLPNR

[4] = system: Hepatitis C virus subtype 1b; test: Selectivity ratio of IC50 for Hepatitis C virus NS5B polymerase S282T mutant to wild type Hepatitis C virus 1b NS5B polymerase
[5] = Inhibition of purified wild type Hepatitis C virus 1a NS5B polymerase; design: species or system Hepatitis C virus subtype 1a
[6] = Inhibition of purified wild type Hepatitis C virus 2a NS5B polymerase; design: species or system Hepatitis C virus subtype 2a
[7] = Inhibition of purified wild type Hepatitis C virus 3a NS5B polymerase; design: species or system Hepatitis C virus subtype 3a
[8] = Inhibition of purified wild type Hepatitis C virus 4a NS5B polymerase; design: species or system Hepatitis C virus subtype 4a

SMILES | EC50 (Hepatitis C virus) [µM] | Activity [1] | IC50 [2] [µM] | IC50 [3] [µM] | further results
C[C@]12OC[C@](CO)(O[C@H]1n1cnc3c(=O)[nH]c(N)nc31)[C@H]2O | > 50 | Non-toxic | – | – | –
Nc1ccn([C@@H]2O[C@@]3(CO)CO[C@@H]2[C@@H]3O)c(=O)n1 | > 50 | Non-toxic | – | – | –
Nc1ncnc2c1ncn2[C@@H]1O[C@@]2(COP(=O)(O)OP(=O)(O)OP(=O)(O)O)CO[C@@H]1[C@@H]2O | – | – | 39.8 | 86.3 | –
Nc1nc2c(ncn2[C@@H]2O[C@@]3(CO)CO[C@@H]2[C@@H]3O)c(=O)[nH]1 | > 50 | Non-toxic | – | – | –
Nc1ccn([C@@H]2O[C@@]3(COP(=O)(O)OP(=O)(O)OP(=O)(O)O)CO[C@@H]2[C@@H]3O)c(=O)n1 | – | – | 1.39 | 1.44 | –
C[C@]12OC[C@](COP(=O)(O)OP(=O)(O)OP(=O)(O)O)(O[C@H]1n1cnc3c(=O)[nH]c(N)nc31)[C@H]2O | – | – | 0.2 | 0.48 | Ratio IC50 [4]: 2
CC(OP(=O)(O)OP(=O)(O)OP(=O)(O)O)[C@@]12CO[C@@H]([C@H](n3cnc4c(=O)[nH]c(N)nc43)O1)[C@@H]2O (stereo in doubt; form 1) | – | – | 15.9 | 25.1 | –
CC(O)[C@@]12CO[C@@H]([C@H](n3cnc4c(=O)[nH]c(N)nc43)O1)[C@@H]2O (mixture of isomers) | > 50 | Non-toxic | – | – | –
Nc1ncnc2c1ncn2[C@@H]1O[C@@]2(CO)CO[C@@H]1[C@@H]2O | > 50 | Non-toxic | – | – | –
Nc1nc2c(ncn2[C@@H]2O[C@@]3(COP(=O)(O)OP(=O)(O)OP(=O)(O)O)CCO[C@@H]2[C@@H]3O)c(=O)[nH]1 | – | – | > 100 | > 100 | –
Nc1nc2c(ncn2[C@@H]2O[C@@]3(COP(=O)(O)OP(=O)(O)OP(=O)(O)O)CO[C@@H]2[C@@H]3O)c(=O)[nH]1 | – | – | 0.39 | 0.38 | IC50 [5]: 0.37 µM; IC50 [6]: 0.29 µM; IC50 [7]: 0.2 µM; IC50 [8]: 0.31 µM
CC(OP(=O)(O)OP(=O)(O)OP(=O)(O)O)[C@@]12CO[C@@H]([C@H](n3cnc4c(=O)[nH]c(N)nc43)O1)[C@@H]2O (stereo in doubt; form 2) | – | – | > 100 | > 100 | –
O=c1ccn([C@@H]2O[C@@]3(COP(=O)(O)OP(=O)(O)OP(=O)(O)O)CO[C@@H]2[C@@H]3O)c(=O)[nH]1 | – | – | 3.84 | 12.8 | –
O=c1ccn([C@@H]2O[C@@]3(CO)CO[C@@H]2[C@@H]3O)c(=O)[nH]1 | > 50 | Non-toxic | – | – | –
Nc1nc2c(ncn2[C@@H]2O[C@@]3(CO)CCO[C@@H]2[C@@H]3O)c(=O)[nH]1 | > 50 | Non-toxic | – | – | –
